ChEMBL document CHEMBL1121427, “Decomposition of pharmacological activity indices into mutually independent components using principal component analysis” (J Med Chem, 1980)

Experiments:
Aspergillus niger = assay: The compound was evaluated for activity against Aspergillus niger; assay type: functional
Trichophyton benhamiae = assay: The compound was evaluated for activity against Trichophyton mentagrophytes; assay type: functional, Arthroderma benhamiae
Albifimbria verrucaria = assay: The compound was evaluated for activity against Myrothecium verrucaria; assay type: functional
[1] = -Log C was determined by performing the incl screen test; assay type: ADME; parameters: unit not given here
[2] = -Log C was determined by performing the pentylenetetrazole test; assay type: ADME; parameters: unit not given here
[3] = -Log C was determined by performing the maximum electroshock test; assay type: ADME; parameters: unit not given here
[4] = -Log C was determined by performing the electroshock minimum test; assay type: ADME; parameters: unit not given here
[5] = -Log C was determined by performing the foot shock test; assay type: ADME; parameters: unit not given here

Row | Structure (SMILES) | -Log C (Aspergillus niger) | -Log C (Trichophyton benhamiae) | -Log C (Albifimbria verrucaria) | -Log C [1] | -Log C [2] | -Log C [3] | -Log C [4] | -Log C [5]
1 | Oc1c(F)ccc2cccnc12 | 1.32 mM l-1 | 1.92 mM l-1 | 1.75 mM l-1 | – | – | – | – | –
2 | CN1C(=O)CN=C(c2ccccc2)c2cc(C#N)ccc21 | – | – | – | 1.14 | 2.36 | 1.29 | 0.14 | 1.74
3 | CN(C)c1ccc2c(c1)C(c1ccccc1)=NCC(=O)N2 | – | – | – | 0.25 | 0.82 | 0.12 | 0.38 | 0.45
4 | COc1ccccc1C1=NCC(=O)Nc2ccc(Cl)cc21 | – | – | – | 0 | 1.6 | 1 | 0.35 | 0.48
5 | CCN1C(=O)CN=C(c2ccccc2)c2cc(Cl)ccc21 | – | – | – | 0.6 | 1.87 | 1.56 | 0.3 | 1.17
